What was measured:
[1] = test system: cMYC-EGFP-DCD2; test: Flow cytometry of EGFP signal, cMYC-EGFP-DCD2 in HMEC; type: cell-based, human; settings: 10uM, 4h
Source text: To systematically delineate the optimal DCD/degrader combination for targeted protein degradation, we undertook a matrix approach evaluating all 23 DCD tags against 6 small molecule degraders. First, we fused the DCD tags with Enhanced Green Fluorescent Protein (EGFP) and a target protein of interest, focusing initially on the proto-oncogene cMYC (Figure 1A). cMYC function has been extensively studied and downstream perturbations of cMYC loss are well characterised,[29]^,[30]^,[31] providing a good reference to test the iTAG system. […]
Figure 1 Design and experimental evaluation of the DCD tags (A) Representation of the experimental pipeline used to evaluate the different DCD constructs. […] Median EGFP intensity was measured in each condition using flow cytometry (3 independent experiments, normalized to the control and represented as mean ± SD). […] Target loss was evaluated either by measuring EGFP median intensity using flow cytometry or western blotting for cMYC protein (3 independent experiments, normalized to the control and represented as mean ± SD). […] Target loss was evaluated as in (D) (3 independent experiments, normalized to the control and represented as mean ± SD). […]

[2] = test system: HMEC, HEK293T, MDA-MB-231, Kelly cells; test: Cell viability assay (CellTiter-Blue); type: cell-based, human; settings: 5 days treatment
Method: By endpoint, CellTiter-Blue reagent (Promega) was added to each well, incubated for 3 h at 37°C and absorbance was measured with a plate reader at 570nm. Average background absorbance value was subtracted from all readings when plotting the viability curve.

[3] = test system: cMYC-EGFP-DCD19; test: Flow cytometry of EGFP signal, cMYC-EGFP-DCD19 in HMEC; type: cell-based, human; settings: 10uM, 4h
Source text: (§1) To systematically delineate the optimal DCD/degrader combination for targeted protein degradation, we undertook a matrix approach evaluating all 23 DCD tags against 6 small molecule degraders. […] To control for any potential off-target effects of the IMiD/CeLMOD agents that could indirectly affect the target of interest, we designed controls in which the specific DCD and the EGFP sequences were interspaced by a P2A ribosomal “skipping” sequence,[32] leading to separate translation of the DCD and the target protein (Figure 1A). These constructs were then inserted into a doxycycline-inducible lentiviral vector system and stably expressed in hTERT immortalized human mammary epithelial cells (HMEC), a suitable model to assess the functional consequences of cMYC degradation. cMYC was tagged at the C-terminus end for the initial screening experiments.
(§2) Figure 1 Design and experimental evaluation of the DCD tags (A) Representation of the experimental pipeline used to evaluate the different DCD constructs. […] Median EGFP intensity was measured in each condition using flow cytometry (3 independent experiments, normalized to the control and represented as mean ± SD). […] The protein lysates were probed for cMYC levels using western blotting. […] Target loss was evaluated either by measuring EGFP median intensity using flow cytometry or western blotting for cMYC protein (3 independent experiments, normalized to the control and represented as mean ± SD). […] Target loss was evaluated as in (D) (3 independent experiments, normalized to the control and represented as mean ± SD). […] Protein lysates were collected and probed for cMYC and p21 using western blotting. […] Protein lysates were collected and probed for cMYC and p21 using western blotting. […] These were left out as controls with no test substance.
(§3) Following degrader treatment cells were collected and DAPI was added to the cell suspension at 1 μg/mL to allow the exclusion of dead cells. EGFP signal was measured using BD LSR II flow cytometer (BD Biosciences). FlowJo 10 Software (FlowJo) was used for data processing.

[4] = target: T1, CRBN/DDB1 complex (Homo sapiens, UniProt Q96SW2); test: IMiD-based fluorescence polarisation assay; type: binding; settings: displacement of Sulfo-Cy5 IMiD probe (5 nM), 80 nM CRBN/DDB1; read-out: FP IC50
T1 construct: WT full length CRBN/DDB1 complex was added; made in house; host or cells: Sf9 insect cells (baculovirus)
T1 sequence (Q96SW2 whole entry): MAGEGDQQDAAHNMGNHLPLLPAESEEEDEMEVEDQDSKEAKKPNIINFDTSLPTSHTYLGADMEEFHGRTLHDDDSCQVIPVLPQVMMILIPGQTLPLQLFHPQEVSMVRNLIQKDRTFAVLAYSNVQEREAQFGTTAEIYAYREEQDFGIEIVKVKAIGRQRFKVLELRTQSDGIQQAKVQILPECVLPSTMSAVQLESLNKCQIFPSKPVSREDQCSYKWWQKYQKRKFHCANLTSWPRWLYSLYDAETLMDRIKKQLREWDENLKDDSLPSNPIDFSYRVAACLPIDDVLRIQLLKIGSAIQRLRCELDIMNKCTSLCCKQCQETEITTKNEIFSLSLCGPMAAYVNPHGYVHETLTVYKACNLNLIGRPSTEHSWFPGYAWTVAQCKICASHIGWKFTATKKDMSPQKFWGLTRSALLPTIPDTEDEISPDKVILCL
T1 sequence (Q16531 whole entry partner): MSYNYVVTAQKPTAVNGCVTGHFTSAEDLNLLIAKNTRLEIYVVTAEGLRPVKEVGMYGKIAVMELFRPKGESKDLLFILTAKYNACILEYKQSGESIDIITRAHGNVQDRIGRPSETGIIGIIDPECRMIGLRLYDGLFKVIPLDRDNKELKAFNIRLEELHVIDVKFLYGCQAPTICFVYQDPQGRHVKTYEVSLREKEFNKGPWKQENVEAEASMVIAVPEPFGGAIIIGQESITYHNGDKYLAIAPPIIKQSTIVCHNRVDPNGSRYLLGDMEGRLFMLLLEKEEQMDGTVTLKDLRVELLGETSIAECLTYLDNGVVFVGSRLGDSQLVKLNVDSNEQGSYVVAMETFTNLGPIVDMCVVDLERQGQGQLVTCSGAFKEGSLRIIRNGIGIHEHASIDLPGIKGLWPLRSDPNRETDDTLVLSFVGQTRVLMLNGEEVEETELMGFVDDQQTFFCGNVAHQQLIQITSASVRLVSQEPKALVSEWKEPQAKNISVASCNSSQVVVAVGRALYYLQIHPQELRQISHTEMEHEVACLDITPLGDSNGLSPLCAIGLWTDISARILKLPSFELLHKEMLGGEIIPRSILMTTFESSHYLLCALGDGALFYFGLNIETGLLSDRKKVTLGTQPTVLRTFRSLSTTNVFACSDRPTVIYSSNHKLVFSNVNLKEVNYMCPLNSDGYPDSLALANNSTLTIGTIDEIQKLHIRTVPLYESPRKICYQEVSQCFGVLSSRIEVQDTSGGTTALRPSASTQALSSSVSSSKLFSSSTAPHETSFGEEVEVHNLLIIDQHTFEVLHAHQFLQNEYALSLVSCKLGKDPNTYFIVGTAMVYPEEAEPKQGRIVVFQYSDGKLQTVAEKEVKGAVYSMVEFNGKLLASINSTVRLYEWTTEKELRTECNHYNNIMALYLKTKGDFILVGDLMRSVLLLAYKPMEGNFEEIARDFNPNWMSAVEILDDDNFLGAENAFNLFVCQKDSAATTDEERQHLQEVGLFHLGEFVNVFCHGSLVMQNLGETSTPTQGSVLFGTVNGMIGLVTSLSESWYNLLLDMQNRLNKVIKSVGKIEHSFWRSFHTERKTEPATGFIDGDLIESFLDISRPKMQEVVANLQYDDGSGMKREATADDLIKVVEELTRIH
Method: First, we wanted to confirm that the IMiD/CELMoDs used in our study were effectively binding to CRBN and to estimate their binding affinities. […] WT full length CRBN/DDB1 complex was added with a Tempest liquid handler (Formulatrix, USA) to all wells to a final concentration of 80 nM, except for low controls where WT CRBN was substituted with mutant [MUT]-[MUT] CRBN (mutant unable to bind the probe). The Echo was also used to add 5 nM final concentration of Sulfo-Cy5 fluorescent IMiD-based probe (Figure S6A) to each well. Plates were sealed, centrifuged at 200 g for 1 min and stored overnight at 4°C. Fluorescence Polarization and total fluorescence were read using a PHERAstar FSX plate reader (BMG Labtech, Germany).

[5] = test system: cMYC-EGFP-DCD23; test: Degradation of cMYC-EGFP-DCD23 in HMEC (flow cytometry, western blotting); type: cell-based, human; settings: EGFP cellular degradation data for the DCD23, related to Figure 1 (10uM, 4h)
Source text: as §1, §2, §3
Cells were lysed with SDS lysis buffer (2% SDS, 10% Glycerol, 50mM Tris pH 6.8) and boiled at 95°C for 30min. Protein concentration was measured using Pierce BCA Protein Assay Kit (ThermoFischer) following manufacturer’s recommendations. Samples were ran in NuPAGETM 10% Bis-Tris Midi electrophoresis gels (Invitrogen) using NuPAGETM MES SDS running buffer (ThermoFischer Scientific).
For western blotting membranes were blocked in a solution of 5% (w/v) bovine serum albumin (BSA; Sigma-Aldrich) dissolved in TBS-0.1% Tween 20 (Sigma-Aldrich) then incubated at 4°C overnight with the primary antibodies diluted in 5% (w/v) BSA/TBS-T. The membranes where then washed and incubated with anti-mouse and/or anti-rabbit secondary antibodies (LI-COR Biosciences) for 2h at RT diluted in 5% (w/v) BSA/TBS-T then washed and imaged using the LI-COR Odyssey (LI-COR Biosciences). Images were analyzed using Image Studio Lite software (LI-COR Biosciences).

With `Cc1ccc(NC(=O)NCc2ccc3c(c2)CN(C2CCC(=O)NC2=O)C3=O)cc1Cl` (centres unmarked) [CC885] the “change of EGFP signal” value [1] was “strong decrease in EGFP signal”, the cellular toxicity [2] was “significant cellular toxicity” and the “loss of cMYC-EGFP signal” value [3] was “robust loss of cMYC-EGFP signal”. For the same molecule, the IC50 [4] was 107 nM and the “Degradation as Log2 FC relative to DMSO” value [5] was -1.27 Log2 FC.
